Data on two compounds can be found in patent US6995148B2, “Adenosine cyclic ketals: novel adenosine analogues for pharmacotherapy” (University of Pittsburgh, priority 2001, dated 2006).

One assay has as its system anesthetized rat. In words: Hemodynamic effects (MABP and heart rate) of intravenous bolus in anesthetized rat. Conditions: bolus injection of 0.2 mg/kg. The assay is classed as in vivo. The procedure:
Preliminary experiments were conducted to evaluate the hemodynamic effects of nonamethonium ACK. Adult male Sprague-Dawley rats utilized in these studies were purchased from Charles River Laboratories (Wilmington, Mass.) and maintained in the University of Pittsburgh Animal Facility. Rats were provided free access to Prolab Isopro RMH 3000 rodent diet (PMI Nutritional Intl., Richmond, Ind.) a nd tap water. The rats weighed approximately 300 grams at the time of study.
Rats were anesthetized with Inactin (100 mg/kg, intraperitoneally or i.p.) and placed on a Deltaphase Isothermal Pad (Braintree Scientific, Inc.; Braintree, Mass.). Body temperature was monitored with a digital rectal probe thermometer (Physioltemp Instruments, Inc.; Clifton, N.J.) and maintained at 37° C. by adjusting a heat lamp above the animal. The trachea was cannulated with polyethylene (PE)- 240 to maintain airway patency, a PE-50 catheter was inserted into the left jugular vein and an intravenous infusion of 0.9% saline was initiated at 80 μl/min. A left carotid artery catheter (PE-50) was inserted and was connected to a digital blood pressure analyzer (Micro-Med; Louisville, Ky.) for continuous measurement of mean arterial blood pressure (MABP) and heart rate. The digital blood pressure analyzer was set to time-average MABP and heart rate at one-minute (slow speed) or two-second (high speed) intervals.
After a 30 minute post-operation rest period, the rats received bolus injections of either adenosine or nonamethonium ACK. Some rats were pretreated with a bolus of 1,3-dipropyl-p-sulfophenylxanthine (DPSPX, a well-characterized adenosine receptor antagonist) followed by a constant rate infusion of DPSPX at 0.15 mg/80 μl/min. It has previously been shown that this dosing regimen with DPSPX effectively blocks adenosine receptors in the rat in vivo.

Assay [1] deals with patients with acute anterior myocardial infarction. Conditions: three-hour intravenous infusion; cited from earlier work.
The subject of a further assay is A2A receptors. To be noted: cited from earlier work.

For the compound `Nc1ncnc2c1ncn2[C@@H]1O[C@H](CO)[C@@H](O)[C@H]1O` [adenosine], in the assay with anesthetized rat, the “time to recovery of MABP” value was “approximately 500 seconds” and the “time to recovery of heart rate” value is given as “approximately 100 seconds”. In the assay with anesthetized rat (FIG. 2A), the “reduction of MABP” value came to 76 mm Hg. Moreover, in the assay on anesthetized rat (FIG. 2B), the “reduction of heart rate” value is on record as 158 beats per minute. Also, the “reduction of infarct size” value in assay [1] was 66%.

Regarding `CCNC(=O)[C@H]1O[C@@H](n2cnc3c(N)nc(NCCc4ccc(CCC(=O)O)cc4)nc32)[C@H](O)[C@@H]1O` [CGS 21680, 2-[4-[(2-carboxyethyl)phenyl]ethylamino]-5′-N-ethylcarboxamidoadenosine], in the assay with A2A receptors, the “affinity for A2A receptors” value is “high affinity”.
